# Results: patent EP0598515A1, “Method for herbicidal activity-enhancing, activity-enhanced herbicidal composition and activity-enhancing composition” (ISHIHARA SANGYO KAISHA LTD., priority 1992, dated 1994)
# Where “and” joins values, the source holds several entries; their conditions need not be identical. Equal entries are not always repeated. Where two headings read alike, the source gives them in different places.
# How the values were obtained:
# Assay type in all cases: in vivo
# [1] = tested on: common cocklebur (Xanthium strumarium L.); test: Test Example 13: field plot test, growth inhibition; conditions: Example 8 suspension concentrate, 27 days after treatment, field plots
# Text: (§1) In field plots of 4 m² (1 m × 4 m) unit arranged in a duplicate system, seeds of corn, crabgrass (Digitaria sanguinalis L.) common lambsquarters (Chenopodium album L.), slender amaranth (Amaranthus viridis L.), velvetleaf (Abutilon theophrasti MEDIC.) and common cocklebur (Xanthium strumarium L.) were sown and grown. Also, green foxtail (Setaria viridis L.) and barnyardgrass (Echinochloa crus-galli L.) were allowed to grow spontaneously. When the plants grew to certain stages (corn: 4.2 to 6.0-leaf stage, crabgrass: 3.2 to 5.0-leaf stage, common lambsquarters: 3.0 to 6.0-leaf stage, slender amaranth: 2.0 to 5.0-leaf stage, velvetleaf: 1.5 to 4.0-leaf stage, common cocklebur: cotyledonal to 3.5-leaf stage, green foxtail: 3.0 to 5.0-leaf stage and barnyardgrass: 3.0 to 5.0-leaf stage), the oil-based suspension concentrate obtained in Example 8 was diluted with 200 liters/hectare of water containing a predetermined amount of Frigate and was applied foliarly to the plants with a small spray gun.
# (§2) Twenty seven days after treatment, the growth inhibition of plants except for corn plants was evaluated with visual observation in the same manner as in Test Example 1 and are shown in Table 13.
# [2] = tested on: green foxtail (Setaria viridis L.); test: as above; conditions: Example 8 suspension concentrate, 27 days after treatment, field plots; for inhibition at 40 g/ha: Compound A 40 g/ha
# Text: as §1, §2
# [3] = tested on: Crabgrass (Digitaria sanguinalis L.); test: as above; conditions: 648 h, Example 8 suspension concentrate, 27 days after treatment, field plots, read-out: Growth Inhibition (%) DS; for inhibition at 30 g/ha: Compound A 30 g/ha; for inhibition at 40 g/ha: Compound A 40 g/ha
# Text: as §1, §2
# [4] = tested on: barnyardgrass (Echinochloa crus-galli L.); test: as above; conditions: Example 8 suspension concentrate, 27 days after treatment, field plots; for inhibition at 30 g/ha: Compound A 30 g/ha
# Text: as §1, §2
# [5] = tested on: Common lambsquarters (Chenopodium album L.); test: as above; conditions: 648 h, Example 8 suspension concentrate, 27 days after treatment, field plots, read-out: Growth Inhibition (%) CA; for inhibition at 30 g/ha: Compound A 30 g/ha; for inhibition at 40 g/ha: Compound A 40 g/ha
# Text: as §1, §2
# total evaluation [6] = test: Test Example 13: field plot test, total evaluation of growth inhibition; conditions: Example 8 suspension concentrate, 27 days after treatment, field plots; for inhibition at 40 g/ha: Compound A 40 g/ha
# Text: as §1, §2
# [7] = tested on: Crabgrass (Digitaria sanginalis L.); test: Test Example 11: pot test, Example 8 suspension concentrate with kinds of EFAS; conditions: EFAS: No addition, 23 days after treatment, duplicate
# Protocol: Crabgrass (Digitaria sanginalis L.) seeds were sown in 1/1,000,000-hectare pots filled with upland soil and arranged in a duplicate system. When the crabgrass plants grew to a 4-leaf stage, the oil-based suspension concentrate obtained in Example 8 was diluted with 200 liters/hectare of water containing a predetermined amount of an ethoxylated fatty amine type surfactant (EFAS) and was applied foliarly to the plants with a small spray gun.
# Twenty three days after treatment, the growth inhibition of plants was evaluated with visual observation in the same manner as in Test Example 1 and are shown in Table 11.
# total evaluation [8] = test: Test Example 12: field plot test, total evaluation of growth inhibition; conditions: 648 h, Example 8 suspension concentrate, 27 days after treatment, field plots, read-out: Growth Inhibition (%) TE; for inhibition at 40 g/ha: Compound A 40 g/ha; for inhibition at 60 g/ha: Compound A 60 g/ha
# Text: In field plots of 3 m² (1 m × 3 m) unit arranged in a duplicate system, seeds of corn, crabgrass (Digitaria sanguinalis L.), green foxtail (Setaria viridis L.), common lambsquarters (Chenopodium album L.), slender amaranth (Amaranthus virdis L.) and velvetleaf (Abutilon theophrasti MEDIC.) were sown and grown. Also, barnyardgrass (Echinochloa crus-galli L.), henbit (Lamiun amplexlcaule L.), pale smartweed (Polygonum lapathifolium L.) and threeseeded copperleaf (Acalypha australis L.) were allowed to grow spontaneously. When the plants grew to certain stages (corn: 6.1 to 6.5-leaf stage, crabgrass: 2.0 to 4.5-leaf stage, green foxtail: 3.0 to 4.5-leaf stage, common lambsquarters: 4.0 to 8.0-leaf stage, slender amaranth: 1.0 to 4.0-leaf stage, velvetleaf: 2.0 to 3.5-leaf stage, barnyardgrass: 3.0 to 4.5-leaf stage, henbit: 2.0 to 5.0 cm, pale smartweed: 3.0 to 5.0-leaf stage and threeseeded copperleaf: 2.0 to 4.0-leaf stage), the oil-based suspension concentrate obtained in Example 8 was diluted with 200 liters/hectare of water containing a predetermined amount of Frigate and was applied foliarly to the plants with a small spray gun.
# Twenty seven days after treatment, the growth inhibition of plants except for corn plants was evaluated with visual observation in the same manner as in Test Example 1 and are shown in Table 12.
# [9] = Frigate: No addition, Compound A 30 g/ha
# [10] = Frigate 0.2 % by volume, Compound A 20 g/ha
# [11] = Frigate: No addition, Compound A 50 g/ha
structure (smiles),measurement,setting,value
"COc1cc(OC)nc(NC(=O)NS(=O)(=O)c2ncccc2C(=O)N(C)C)n1 [Compound A, N-[(4,6-dimethoxypyrimidin-2-yl)aminocarbonyl]-3-dimethylaminocarbonyl-2-pyridinesulfonamide]",Growth Inhibition (%) XS,"[1]; Frigate 0.2 % by volume, Compound A 40 g/ha",65%
same,Growth Inhibition (%) XS,[1]; [9],25% and 50%
same,inhibition at 30 g/ha,"[1]; Xanthium strumarium, 648 h, Frigate 0.1 % by volume, Compound A 30 g/ha, read-out: Growth Inhibition (%) XS",80%
same,inhibition at 40 g/ha,"[1]; Xanthium strumarium, 648 h, Frigate 0.1 % by volume, Compound A 40 g/ha, read-out: Growth Inhibition (%) XS",80%
same,inhibition at 20 g/ha,"[1]; Xanthium strumarium, 648 h, Frigate 0.2 % by volume, Compound A 20 g/ha, read-out: Growth Inhibition (%) XS",80%
same,inhibition at 30 g/ha,"[1]; Xanthium strumarium, 648 h, Frigate 0.2 % by volume, Compound A 30 g/ha, read-out: Growth Inhibition (%) XS",85%
same,inhibition at 40 g/ha,"[1]; Xanthium strumarium, 648 h, Frigate: No addition, Compound A 40 g/ha, read-out: Growth Inhibition (%) XS",75%
same,inhibition at 50 g/ha,"[1]; Xanthium strumarium, 648 h, Frigate: No addition, Compound A 50 g/ha, read-out: Growth Inhibition (%) XS",70%
same,Growth Inhibition (%) SV,"[2]; Frigate 0.1 % by volume, Compound A 30 g/ha",40%
same,inhibition at 40 g/ha,"[2]; Setaria viridis, 648 h, Frigate 0.1 % by volume, read-out: Growth Inhibition (%) SV",70%
same,inhibition at 20 g/ha,"[2]; Setaria viridis, 648 h, Frigate 0.2 % by volume, Compound A 20 g/ha, read-out: Growth Inhibition (%) SV",60%
same,inhibition at 30 g/ha,"[2]; Setaria viridis, 648 h, Frigate 0.2 % by volume, Compound A 30 g/ha, read-out: Growth Inhibition (%) SV",65%
same,inhibition at 40 g/ha,"[2]; Setaria viridis, 648 h, Frigate 0.2 % by volume, read-out: Growth Inhibition (%) SV",75%
same,inhibition at 30 g/ha,"[2]; Setaria viridis, 648 h, Frigate: No addition, Compound A 30 g/ha, read-out: Growth Inhibition (%) SV",65%
same,inhibition at 40 g/ha,"[2]; Setaria viridis, 648 h, Frigate: No addition, read-out: Growth Inhibition (%) SV",70%
same,inhibition at 50 g/ha,"[2]; Setaria viridis, 648 h, Frigate: No addition, Compound A 50 g/ha, read-out: Growth Inhibition (%) SV",80%
same,inhibition at 30 g/ha,[3]; Frigate 0.1 % by volume,85%
same,inhibition at 40 g/ha,[3]; Frigate 0.1 % by volume,95%
same,inhibition at 20 g/ha,[3]; [10],85%
same,inhibition at 30 g/ha,[3]; Frigate 0.2 % by volume,85%
same,inhibition at 40 g/ha,[3]; Frigate 0.2 % by volume,90%
same,inhibition at 30 g/ha,[3]; Frigate: No addition,75%
same,inhibition at 40 g/ha,[3]; Frigate: No addition,80%
same,inhibition at 50 g/ha,[3]; [11],85%
same,inhibition at 40 g/ha,"[4]; Echinochloa crus-galli, 648 h, Frigate 0.1 % by volume, Compound A 40 g/ha, read-out: Growth Inhibition (%) EC",100%
same,inhibition at 20 g/ha,"[4]; Echinochloa crus-galli, 648 h, Frigate 0.2 % by volume, Compound A 20 g/ha, read-out: Growth Inhibition (%) EC",100%
same,inhibition at 30 g/ha,"[4]; Echinochloa crus-galli, 648 h, Frigate 0.2 % by volume, read-out: Growth Inhibition (%) EC",100%
same,inhibition at 40 g/ha,"[4]; Echinochloa crus-galli, 648 h, Frigate 0.2 % by volume, Compound A 40 g/ha, read-out: Growth Inhibition (%) EC",100%
same,inhibition at 30 g/ha,"[4]; Echinochloa crus-galli, 648 h, Frigate: No addition, read-out: Growth Inhibition (%) EC",65%
same,inhibition at 40 g/ha,"[4]; Echinochloa crus-galli, 648 h, Frigate: No addition, Compound A 40 g/ha, read-out: Growth Inhibition (%) EC",75%
same,Growth Inhibition (%) EC,"[4]; Frigate: No addition, Compound A 40 g/ha",60%
same,inhibition at 30 g/ha,[5]; Frigate 0.1 % by volume,80%
same,inhibition at 40 g/ha,[5]; Frigate 0.1 % by volume,90%
same,inhibition at 30 g/ha,[5]; Frigate 0.2 % by volume,85%
same,inhibition at 40 g/ha,[5]; Frigate 0.2 % by volume,90%
same,inhibition at 30 g/ha,[5]; Frigate: No addition,45%
same,inhibition at 40 g/ha,[5]; Frigate: No addition,65%
same,inhibition at 50 g/ha,[5]; [11],65%
same,inhibition at 30 g/ha,"total evaluation [6]; 648 h, Frigate 0.1 % by volume, Compound A 30 g/ha, read-out: Growth Inhibition (%) TE",75%
same,inhibition at 40 g/ha,"total evaluation [6]; 648 h, Frigate 0.1 % by volume, read-out: Growth Inhibition (%) TE",90%
same,inhibition at 20 g/ha,"total evaluation [6]; 648 h, Frigate 0.2 % by volume, Compound A 20 g/ha, read-out: Growth Inhibition (%) TE",65%
same,inhibition at 30 g/ha,"total evaluation [6]; 648 h, Frigate 0.2 % by volume, Compound A 30 g/ha, read-out: Growth Inhibition (%) TE",80%
same,inhibition at 40 g/ha,"total evaluation [6]; 648 h, Frigate 0.2 % by volume, read-out: Growth Inhibition (%) TE",85%
same,inhibition at 30 g/ha,"total evaluation [6]; 648 h, Frigate: No addition, Compound A 30 g/ha, read-out: Growth Inhibition (%) TE",50%
same,inhibition at 40 g/ha,"total evaluation [6]; 648 h, Frigate: No addition, read-out: Growth Inhibition (%) TE",70%
same,inhibition at 50 g/ha,"total evaluation [6]; 648 h, Frigate: No addition, Compound A 50 g/ha, read-out: Growth Inhibition (%) TE",75%
same,Growth Inhibition (%) TE,total evaluation [6]; [9],60%
same,inhibition at 10 g/ha,"[7]; Digitaria, 552 h, Compound A 10 g/ha, read-out: Growth Inhibition (%) of Crabgrass",70%
same,inhibition at 20 g/ha,"[7]; Digitaria, 552 h, Compound A 20 g/ha, read-out: Growth Inhibition (%) of Crabgrass",98%
same,inhibition at 40 g/ha,"[7]; Digitaria, 552 h, Compound A 40 g/ha, read-out: Growth Inhibition (%) of Crabgrass",98%
same,Growth Inhibition (%) of Crabgrass,[7]; Compound A 10 g/ha,55%
same,Growth Inhibition (%) of Crabgrass,[7]; Compound A 20 g/ha,90%
same,inhibition at 20 g/ha,total evaluation [8]; [10],95%
same,inhibition at 30 g/ha,"total evaluation [8]; Frigate 0.2 % by volume, Compound A 30 g/ha",95%
same,inhibition at 40 g/ha,total evaluation [8]; Frigate 0.2 % by volume,95%
same,inhibition at 60 g/ha,total evaluation [8]; Frigate 0.2 % by volume,99%
same,inhibition at 40 g/ha,total evaluation [8]; Frigate: No addition,70%
same,inhibition at 60 g/ha,total evaluation [8]; Frigate: No addition,70%
